Experimental data from patent US20180370927A1, “MICROBIOCIDAL OXADIAZOLE DERIVATIVES” (SYNGENTA PARTICIPATIONS AG, priority 2015, published 2018).

Key:
[1] = test system: Glomerella lacenarium (Colletotrichum lacenarium); experiment: Glomerella lacenarium (Colletotrichum lacenarium) liquid culture / cucumber / preventative (anthracnose); format: cell-based; details: 20 ppm in the applied formulation, liquid culture in PDB, 24° C., 3 to 4 days after application, read-out: disease control (inhibition of growth, photometric) compared to untreated control
Outline: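 At 20 ppm in the applied formulation, compounds were mixed with fungal spores in potato dextrose broth and held at 24° C. After 3–4 days, photometric growth measurement gave percent antifungal activity relative to untreated control.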

Phakopsora pachyrhizi = Phakopsora pachyrhizi / soybean / leaf disc preventative (Asian soybean rust); format: in vivo; details: foliar, 200 ppm in the applied formulation, soybean leaf disks, assessed 12 to 14 days after application, read-out: disease control compared to untreated control leaf disks
Method: Leaf disks or leaf segments of various plant species are cut from plants grown in a greenhouse. The cut leaf disks or segments are placed in multiwell plates (24-well format) onto water agar. The leaf disks are sprayed with a test solution before (preventative) or after (curative) inoculation. Compounds to be tested are prepared as DMSO solutions (max. 10 mg/mL) which are diluted to the appropriate concentration with 0.025% Tween20 just before spraying. The inoculated leaf disks or segments are incubated under defined conditions (temperature, relative humidity, light, etc.) according to the respective test system. A single evaluation of disease level is carried out 3 to 14 days after inoculation, depending on the pathosystem. Percent disease control relative to the untreated check leaf disks or segments is then calculated.
Example 3: Fungicidal Activity Against Phakopsora pachyrhizi/Soybean/Leaf Disc Preventative (Asian Soybean Rust)
Soybean leaf disks are placed on water agar in multiwell plates (24-well format) and sprayed with the formulated test compound diluted in water. One day after application leaf discs are inoculated by spraying a spore suspension on the lower leaf surface. After an incubation period in a climate cabinet of 24-36 hours in darkness at 20° C. and 75% relative humidity leaf disc are kept at 20° C. with 12 hours light/day and 75% relative humidity. The activity of a compound is assessed as percent disease control compared to untreated when an appropriate level of disease damage appears in untreated check leaf disks (12 to 14 days after application).
The following compounds at 200 ppm in the applied formulation give at least 80% disease control in this test when compared to untreated control leaf disks under the same conditions, which show extensive disease development.

[2] = test system: Puccinia recondita f. Sp. Tritici; experiment: Puccinia recondita f. sp. tritici / wheat / leaf disc preventative (brown rust); format: in vivo; details: foliar, 200 ppm in the applied formulation, wheat leaf segments, preventative, assessed 7 to 9 days after application, read-out: disease control compared to untreated control leaf disks
Outline: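 Wheat cv. Kanzler leaf segments on agar sprayed with formulated compound in water, inoculated with rust spores 1 day later. Incubated at 19° C, 75% rh, 12 h light/12 h dark; percent disease control versus untreated scored 7 to 9 days after application; tested at 200 ppm.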

[3] = test system: Puccinia recondita f. Sp. Tritici; experiment: Puccinia recondita f. sp. tritici / wheat / leaf disc curative (brown rust); format: in vivo; details: foliar, 200 ppm in the applied formulation, wheat leaf segments, curative (applied 1 day after inoculation), assessed 6 to 8 days after application, read-out: disease control compared to untreated control leaf disks
Outline: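 Curative treatment: formulated compound in water was applied 1 day post-inoculation to spore-inoculated wheat cv. Kanzler segments held on agar. Segments stayed at 19° C and 75% relative humidity (12 h photoperiod after application), and disease control relative to untreated checks was assessed 6 to 8 days later.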

CCCC(=O)C(=O)N(Cc1ccc(-c2noc(C(F)(F)F)n2)cc1)OC [Compound 1.3, N-methoxy-2-oxo-N-[[4-[5-(trifluoromethyl)-1,2,4-oxadiazol-3-yl]phenyl]methyl]pentanamide]
≥ 80%: inhibition at 20 ppm [1] | pest or weed control at 200 ppm (Phakopsora pachyrhizi) | pest or weed control at 200 ppm [2] | pest or weed control at 200 ppm [3]

CCCC(=O)C(=O)N(Cc1ccc(-c2noc(C(F)(F)F)n2)cc1)C1CC1 [Compound 1.4, N-cyclopropyl-2-oxo-N-[[4-[5-(trifluoromethyl)-1,2,4-oxadiazol-3-yl]phenyl]methyl]pentanamide]
≥ 80%: inhibition at 20 ppm [1] | pest or weed control at 200 ppm (Phakopsora pachyrhizi) | pest or weed control at 200 ppm [2] | pest or weed control at 200 ppm [3]

C#CCN(Cc1ccc(-c2noc(C(F)(F)F)n2)cc1)C(=O)C(=O)CCC [Compound 1.5, 2-oxo-N-prop-2-ynyl-N-[[4-[5-(trifluoromethyl)-1,2,4-oxadiazol-3-yl]phenyl]methyl]pentanamide]
≥ 80%: inhibition at 20 ppm [1] | pest or weed control at 200 ppm (Phakopsora pachyrhizi) | pest or weed control at 200 ppm [2] | pest or weed control at 200 ppm [3]

COCCN(Cc1ccc(-c2noc(C(F)(F)F)n2)cc1)C(=O)C(C)=O [Compound 1.10, N-(2-methoxyethyl)-2-oxo-N-[[4-[5-(trifluoromethyl)-1,2,4-oxadiazol-3-yl]phenyl]methyl]propanamide]
≥ 80%: inhibition at 20 ppm [1] | pest or weed control at 200 ppm (Phakopsora pachyrhizi) | pest or weed control at 200 ppm [2] | pest or weed control at 200 ppm [3]

CCC(C)N(Cc1ccc(-c2noc(C(F)(F)F)n2)cc1)C(=O)C(C)=O (stereo not drawn) [Compound 1.12, 2-oxo-N-sec-butyl-N-[[4-[5-(trifluoromethyl)-1,2,4-oxadiazol-3-yl]phenyl]methyl]propanamide]
≥ 80%: inhibition at 20 ppm [1] | pest or weed control at 200 ppm (Phakopsora pachyrhizi) | pest or weed control at 200 ppm [2] | pest or weed control at 200 ppm [3]

C=CCN(Cc1ccc(-c2noc(C(F)(F)F)n2)cc1)C(=O)C(C)=O [Compound 1.16, N-allyl-2-oxo-N-[[4-[5-(trifluoromethyl)-1,2,4-oxadiazol-3-yl]phenyl]methyl]propanamide]
≥ 80%: inhibition at 20 ppm [1] | pest or weed control at 200 ppm (Phakopsora pachyrhizi) | pest or weed control at 200 ppm [3]

C=CCN(Cc1ccc(-c2noc(C(F)(F)F)n2)cc1)C(=O)C(=O)CCC [Compound 1.17, N-allyl-2-oxo-N-[[4-[5-(trifluoromethyl)-1,2,4-oxadiazol-3-yl]phenyl]methyl]pentanamide]
≥ 80%: inhibition at 20 ppm [1] | pest or weed control at 200 ppm (Phakopsora pachyrhizi) | pest or weed control at 200 ppm [2] | pest or weed control at 200 ppm [3]

CCN(Cc1ccc(-c2noc(C(F)(F)F)n2)cc1)C(=O)C(C)=O [Compound 1.18, N-ethyl-2-oxo-N-[[4-[5-(trifluoromethyl)-1,2,4-oxadiazol-3-yl]phenyl]methyl]propanamide]
≥ 80%: inhibition at 20 ppm [1] | pest or weed control at 200 ppm (Phakopsora pachyrhizi) | pest or weed control at 200 ppm [2] | pest or weed control at 200 ppm [3]

CCCC(=O)C(=O)N(CC)Cc1ccc(-c2noc(C(F)(F)F)n2)cc1 [Compound 1.19, N-ethyl-2-oxo-N-[[4-[5-(trifluoromethyl)-1,2,4-oxadiazol-3-yl]phenyl]methyl]pentanamide]
≥ 80%: inhibition at 20 ppm [1] | pest or weed control at 200 ppm (Phakopsora pachyrhizi) | pest or weed control at 200 ppm [2] | pest or weed control at 200 ppm [3]

CC(=O)C(=O)N(C)Cc1ccc(-c2noc(C(F)(F)F)n2)cc1 [Compound 1.20, N-methyl-2-oxo-N-[[4-[5-(trifluoromethyl)-1,2,4-oxadiazol-3-yl]phenyl]methyl]propanamide]
≥ 80%: inhibition at 20 ppm [1] | pest or weed control at 200 ppm (Phakopsora pachyrhizi) | pest or weed control at 200 ppm [2] | pest or weed control at 200 ppm [3]

CCCC(=O)C(=O)N(C)Cc1ccc(-c2noc(C(F)(F)F)n2)cc1 [Compound 1.21, N-methyl-2-oxo-N-[[4-[5-(trifluoromethyl)-1,2,4-oxadiazol-3-yl]phenyl]methyl]pentanamide]
≥ 80%: inhibition at 20 ppm [1] | pest or weed control at 200 ppm (Phakopsora pachyrhizi) | pest or weed control at 200 ppm [2] | pest or weed control at 200 ppm [3]

CCON(Cc1ccc(-c2noc(C(F)(F)F)n2)cc1)C(=O)C(=O)CC [Compound 1.29, N-ethoxy-2-oxo-N-[[4-[5-(trifluoromethyl)-1,2,4-oxadiazol-3-yl]phenyl]methyl]butanamide]
≥ 80%: inhibition at 20 ppm [1] | pest or weed control at 200 ppm (Phakopsora pachyrhizi) | pest or weed control at 200 ppm [2] | pest or weed control at 200 ppm [3]

CCCN(Cc1ccc(-c2noc(C(F)(F)F)n2)cc1)C(=O)C(=O)CC [Compound 1.31, 2-oxo-N-propyl-N-[[4-[5-(trifluoromethyl)-1,2,4-oxadiazol-3-yl]phenyl]methyl]butanamide]
≥ 80%: inhibition at 20 ppm [1] | pest or weed control at 200 ppm (Phakopsora pachyrhizi) | pest or weed control at 200 ppm [2] | pest or weed control at 200 ppm [3]

CCC(=O)C(=O)N(Cc1ccc(-c2noc(C(F)(F)F)n2)cc1)C(C)C [Compound 1.32]
≥ 80%: inhibition at 20 ppm [1] | pest or weed control at 200 ppm (Phakopsora pachyrhizi) | pest or weed control at 200 ppm [2] | pest or weed control at 200 ppm [3]

CCC(=O)C(=O)N(CCO)Cc1ccc(-c2noc(C(F)(F)F)n2)cc1 [Compound 1.33, N-(2-hydroxyethyl)-2-oxo-N-[[4-[5-(trifluoromethyl)-1,2,4-oxadiazol-3-yl]phenyl]methyl]butanamide]
≥ 80%: inhibition at 20 ppm [1] | pest or weed control at 200 ppm (Phakopsora pachyrhizi) | pest or weed control at 200 ppm [2] | pest or weed control at 200 ppm [3]

CON(Cc1ccc(-c2noc(C(F)(F)F)n2)cc1)C(=O)C(C)=O [Compound 1.36, N-methoxy-2-oxo-N-[[4-[5-(trifluoromethyl)-1,2,4-oxadiazol-3-yl]phenyl]methyl]propanamide]
≥ 80%: inhibition at 20 ppm [1] | pest or weed control at 200 ppm (Phakopsora pachyrhizi) | pest or weed control at 200 ppm [2] | pest or weed control at 200 ppm [3]

O=C(NCc1ccc(-c2noc(C(F)(F)F)n2)cc1F)C(=O)c1ccccc1 [Compound 1.37, N-[[2-fluoro-4-[5-(trifluoromethyl)-1,2,4-oxadiazol-3-yl]phenyl]methyl]-2-oxo-2-phenyl-acetamide]
≥ 80%: inhibition at 20 ppm [1] | pest or weed control at 200 ppm (Phakopsora pachyrhizi) | pest or weed control at 200 ppm [2] | pest or weed control at 200 ppm [3]

CC(C)CC(=O)C(=O)NCc1ccc(-c2noc(C(F)(F)F)n2)cc1F [Compound 1.38, N-[[2-fluoro-4-[5-(trifluoromethyl)-1,2,4-oxadiazol-3-yl]phenyl]methyl]-4-methyl-2-oxo-pentanamide]
≥ 80%: inhibition at 20 ppm [1] | pest or weed control at 200 ppm (Phakopsora pachyrhizi) | pest or weed control at 200 ppm [2] | pest or weed control at 200 ppm [3]

O=C(NCc1ccc(-c2noc(C(F)(F)F)n2)cc1F)C(=O)c1cccs1 [Compound 1.39, N-[[2-fluoro-4-[5-(trifluoromethyl)-1,2,4-oxadiazol-3-yl]phenyl]methyl]-2-oxo-2-(2-thienyl)acetamide]
≥ 80%: inhibition at 20 ppm [1] | pest or weed control at 200 ppm (Phakopsora pachyrhizi) | pest or weed control at 200 ppm [2] | pest or weed control at 200 ppm [3]

CON(Cc1ccc(-c2noc(C(F)(F)F)n2)cc1)C(=O)C(=O)c1cccs1 [Compound 1.73, N-methoxy-2-oxo-2-(2-thienyl)-N-[[4-[5-(trifluoromethyl)-1,2,4-oxadiazol-3-yl]phenyl]methyl]acetamide]
≥ 80%: inhibition at 20 ppm [1] | pest or weed control at 200 ppm (Phakopsora pachyrhizi) | pest or weed control at 200 ppm [2]

O=C(NCc1ccc(-c2noc(C(F)(F)F)n2)cc1Cl)C(=O)c1ccco1 [Compound 1.84, N-[[2-chloro-4-[5-(trifluoromethyl)-1,2,4-oxadiazol-3-yl]phenyl]methyl]-2-(2-furyl)-2-oxo-acetamide]
≥ 80%: inhibition at 20 ppm [1] | pest or weed control at 200 ppm (Phakopsora pachyrhizi) | pest or weed control at 200 ppm [2]

CCCCON(Cc1ccc(-c2noc(C(F)(F)F)n2)cc1)C(=O)C(N)=O [Compound 4.87, N′-butoxy-N′-[[4-[5-(trifluoromethyl)-1,2,4-oxadiazol-3-yl]phenyl]methyl] oxamide]
≥ 80%: inhibition at 20 ppm [1] | pest or weed control at 200 ppm (Phakopsora pachyrhizi) | pest or weed control at 200 ppm [2]
